Source: US11998600B2, “Enhancing the therapeutic activity of an immune checkpoint inhibitor” (MaineHealth, priority 2015, dated 2024)

Assays:
P38MAPK [1] = assay: P38MAPK phosphorylation in HUVECs attached to collagen peptides, Western blot; format: cell-based, human; settings: cells attached to immobilized peptide; FIG. 6D
Procedure: (§1) Endothelial cells (HUVECs or HRMVECs) were incubated in serum free media with 1 mM MgCl2, 0.2 mM MnCl2 in the presence of a Src inhibitor, PP2, (10 μM) a P38MAPK inhibitor, SB202190 (10 μM) or vehicle only (DMSO) for 10 min at 37° C. Treated cells were then seeded on to immobilized P-1 and P-2 and lysates were collected at 15 min.
Whole cell and CAM tissue lysates were collected in RIPA buffer supplemented with 1× protease inhibitor and 1× phosphatase inhibitor and were run on polyacrylamide gels using denaturing conditions. Prior to loading the gels, 6× sample buffer was added to each of the lysates (final concentration 1×) and boiled for five minutes. Twenty to 50 μg of total protein were loaded into each lane. For detection of proteins larger than 50 kD, 10% gels were used; for proteins smaller than 50 kD 15% gels were used. Gels were run at 60 volts (v) until the dye front passed through the stacking gel, and then the voltage was increased to 100V for the remainder of the separation. Precision Plus protein standards (Bio-Rad) were used to visualize migration. Protein was transferred to nitrocellulose membranes using a wet tank system and blocked for 1 h using 10% non-fat dried milk in tris-buffered saline with 0.01% Tween-20 (TBS-T). […] Western blot bands were quantified using Image J software based on pixel intensity. […]

P38MAPK [2] = assay: P38MAPK phosphorylation in HRMVEC attached to collagen peptides, Western blot; format: cell-based, human; settings: cells attached to immobilized peptide; FIG. 6E
Procedure: as §1
Whole cell and CAM tissue lysates were collected in RIPA buffer supplemented with 1× protease inhibitor and 1× phosphatase inhibitor and were run on polyacrylamide gels using denaturing conditions. Prior to loading the gels, 6× sample buffer was added to each of the lysates (final concentration 1×) and boiled for five minutes. Twenty to 50 μg of total protein were loaded into each lane. […] Gels were run at 60 volts (v) until the dye front passed through the stacking gel, and then the voltage was increased to 100V for the remainder of the separation. Precision Plus protein standards (Bio-Rad) were used to visualize migration. Protein was transferred to nitrocellulose membranes using a wet tank system and blocked for 1 h using 10% non-fat dried milk in tris-buffered saline with 0.01% Tween-20 (TBS-T). […] Membranes were washed 3 times in TBS-T for five minutes. Blots were then incubated with HRP conjugated secondary antibodies (1:15000) in 1% non-fat milk in TBS-T for 1 h. […] Western blot bands were quantified using Image J software based on pixel intensity.

[3] = tested on: chick chorioallantoic membrane (CAM); assay: Chick CAM angiogenesis assay, induction by RGD collagen peptides; format: in vivo; settings: chick CAM
Procedure: The chick chorioallantoic membrane (CAM) assays were carried out with some modifications (19). For all experiments CAMs of 10-day-old chick embryos obtained from Charles River (North Franklin, CT) were separated from the shell membrane. Filter discs either non-treated (inflammation assays) pretreated (angiogenesis assays) with cortisone acetate (3.0 mg/ml) containing RPMI only or FGF-2 (40 ng). CAMs were either non-treated or treated topically with Mab XL313, XL166 or a non-specific control antibody (10 μg/embryo every 24 h for three consecutive treatments). […] At the end of the incubation period the embryos were sacrificed and the CAM tissues were analyzed. Angiogenesis was quantified by counting the number of angiogenic branching blood vessels within the area of the filter disc. The angiogenic index was determined by subtracting the mean number of blood vessel branch points from untreated CAMs from each experimental condition. Eight to twelve embryos were used per condition and experiments were repeated at least three times.
To examine this possibility, the effects of the RGDKGE (SEQ ID NO. 1) containing collagen peptide on angiogenesis and inflammation in the chick CAM were assessed.

Fak = Fak phosphorylation in endothelial cells attached to collagen peptides; format: cell-based, human; settings: serum free conditions
Procedure: Whole cell and CAM tissue lysates were collected in RIPA buffer supplemented with 1× protease inhibitor and 1× phosphatase inhibitor and were run on polyacrylamide gels using denaturing conditions. Prior to loading the gels, 6× sample buffer was added to each of the lysates (final concentration 1×) and boiled for five minutes. Twenty to 50 μg of total protein were loaded into each lane. For detection of proteins larger than 50 kD, 10% gels were used; for proteins smaller than 50 kD 15% gels were used. Gels were run at 60 volts (v) until the dye front passed through the stacking gel, and then the voltage was increased to 100V for the remainder of the separation. Precision Plus protein standards (Bio-Rad) were used to visualize migration. […] Western blot bands were quantified using Image J software based on pixel intensity.
Because both RGD containing peptides bind αvβ3 coupled with the differential effect of these peptides on angiogenesis and inflammation, it was determined whether the RGD peptides differentially altered αvβ3-mediated signaling. […] Therefore, the differential phosphorylation of these protein kinases following the early mechanical-mediated interactions with the RGD containing collagen peptides was assessed. […]

QGPRGDKGE [Mab P-2]
phosphorylation of P38MAPK in HUVECs, P-2 as compared to P-1 (P38MAPK [1]): enhanced phosphorylation of P38MAPK
phosphorylation of P38MAPK in HRMVEC, P-2 as compared to P-1 (P38MAPK [2]): enhanced phosphorylation of P38MAPK
dose dependent induction of CAM angiogenesis ([3]; FIG. 5B): dose dependently enhanced angiogenesis
dose of maximum induction of angiogenesis ([3]; FIG. 5B): 100 ng/CAM
induction of CAM angiogenesis as compared to no treatment ([3]; peptides 100 ng/ml, FIG. 5C): significantly (P>0.05) induced angiogenesis
Fak phosphorylation following ligation of peptide (Fak): Minimal Fak phosphorylation
